Data on one compound can be found in ChEMBL document CHEMBL3593205, “Total Synthesis of 4,5-Didehydroguadiscine: A Potent Melanogenesis Inhibitor from the Brazilian Medicinal Herb, Hornschuchia obliqua” (J Nat Prod, 2015).

Series [1] is described as follows: Inhibition of theophylline-stimulated melanogenesis in mouse B16-4A5 cells after 72 hrs by microplate reader analysis. Type of series: functional, cell-based.
The nature of series [2]: Potency index, ratio of arbutin IC50 to compound IC50 for inhibition of theophylline-stimulated melanogenesis in mouse B16-4A5 cells. Type of series: functional.
Series [3] is described as follows: Cytotoxicity against mouse B16-4A5 cells assessed as cell viability at 3 uM after 72 hrs by MTT assay in presence of theophylline relative to control. Type of series: cell-based. To be noted: read-out: Activity.
The nature of series [4]: Cytotoxicity against mouse B16-4A5 cells assessed as cell viability at 10 uM after 72 hrs by MTT assay in presence of theophylline relative to control. Type of series: cell-based. To be noted: read-out: Activity.

As usually defined, the IC50 is the concentration at which inhibition is half-maximal. Higher therefore signals a need for much substance.

In turn, `COc1ccc2c(c1)C(C)(C)c1nccc3cc4c(c-2c13)OCO4` returned an IC50 in series [1] of 4.7 µM. The “Ratio IC50” value in series [2] stood at 40. For the same compound, in series [3], the viability at 72 h, 3 µM came to 95.7%. Also, the viability at 72 h, 10 µM in series [4] is 86.7%.
